From patent US20200129533A1, “PHARMACEUTICAL NANOSUSPENSION FOR THE THERAPY OF HIV INFECTION” (priority 2017, published 2020)
Read-outs that look alike come from different tables or passages of the source.

How the values were obtained:
Assay type in all cases: cell-based
HIV-1 HXB2 strain = assay: Inhibition of HIV-1 HXB2 (wild-type) replication in MT-4 cell line
Procedure: (§1) Elsulfavirine/Elpida/VM-1500 (la) is the prodrug of the active compound VM-1500A (1b), a Non-Nucleoside Reverse Transcriptase Inhibitor (NNRTI), which efficiently prevents HIV-1 HXB2 strain replication in the MT-4 cell line. […] 0.6±0.6 nM (G190A), 1.3±0.3 nM (L100I/K103N), and 1.3±0.4 nM (K103N/Y181C)

HIV-1 mutant virus V106A = assay: Inhibition of replication of HIV-1 mutant virus V106A; conditions: Human immunodeficiency virus 1, read-out: Average IC50
Procedure: as §1

HIV-1 mutant virus G190A = assay: Inhibition of replication of HIV-1 mutant virus G190A; conditions: Human immunodeficiency virus 1, read-out: Average IC50
Procedure: as §1

[1] = system: HIV-1 mutant virus L100I/K103N; assay: Inhibition of replication of HIV-1 mutant virus L100I/K103N; conditions: Human immunodeficiency virus 1, read-out: Average IC50
Procedure: as §1

[2] = system: HIV-1 mutant virus K103N/Y181C; assay: Inhibition of replication of HIV-1 mutant virus K103N/Y181C; conditions: Human immunodeficiency virus 1, read-out: Average IC50
Procedure: as §1

Structure (SMILES): N#Cc1cc(Cl)cc(Oc2c(Br)ccc(CC(=O)Nc3ccc(S(N)(=O)=O)cc3Cl)c2F)c1 [VM-1500A]
- IC50 (HIV-1 HXB2 strain; Human immunodeficiency virus 1, HXB2, MT4, as restated, converted to ng/ml, read-out: effective concentration (IC50)): 0.74 ng/mL
- IC50 (HIV-1 HXB2 strain; Human immunodeficiency virus 1, HXB2, MT4, as restated, read-out: effective concentration (IC50)): 1.3 nM
- IC50 (HIV-1 HXB2 strain; Human immunodeficiency virus 1, MT4, wild-type HXB2 strain, MT-4 cell line, read-out: Average IC50): 1.3 ± 0.4 nM
- IC50 (HIV-1 mutant virus V106A): 1.2 ± 0.2 nM
- IC50 (HIV-1 mutant virus G190A): 0.6 ± 0.6 nM
- IC50 [1]: 1.3 ± 0.3 nM
- IC50 [2]: 1.3 ± 0.4 nM
